{"source": "patent US20250230193A1", "about": "“CYCLIC COMPOUND HAVING SELECTIVE KRAS INHIBITORY EFFECT ON HRAS AND NRAS” (CHUGAI SEIYAKU KABUSHIKI KAISHA, priority 2022, published 2025)", "key": {"[1]": {"target": "GDP-bound HRAS wild-type protein (Homo sapiens, UniProt P01112)", "sequence (P01112 whole entry)": "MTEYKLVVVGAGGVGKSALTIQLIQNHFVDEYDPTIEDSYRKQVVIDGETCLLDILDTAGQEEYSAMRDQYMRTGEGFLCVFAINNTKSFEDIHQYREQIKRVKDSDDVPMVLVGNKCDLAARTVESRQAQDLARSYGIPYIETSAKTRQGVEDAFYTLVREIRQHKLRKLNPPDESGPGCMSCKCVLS", "assay": "Binding to HRAS by surface plasmon resonance (SPR), Single Cycle Kinetics", "settings": "for HRAS/KRAS (ratio of KD value with respect to HRAS to KD value with respect to KRAS) / HRAS/KRAS (ratio of KD value for HRAS to KD value for KRAS): GDP-bound HRAS wild-type vs GDP-bound KRAS wild-type"}, "[2]": {"target": "GDP-bound NRAS wild-type protein (Homo sapiens, UniProt P01111)", "sequence (P01111 whole entry)": "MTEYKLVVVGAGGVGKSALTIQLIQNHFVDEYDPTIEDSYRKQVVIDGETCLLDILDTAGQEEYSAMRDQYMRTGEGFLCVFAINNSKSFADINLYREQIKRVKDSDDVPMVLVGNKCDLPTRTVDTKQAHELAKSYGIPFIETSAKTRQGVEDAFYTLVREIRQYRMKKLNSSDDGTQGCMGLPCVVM", "assay": "Binding to NRAS by surface plasmon resonance (SPR), Single Cycle Kinetics", "settings": "for NRAS/KRAS (ratio of KD value with respect to NRAS to KD value with respect to KRAS) / NRAS/KRAS (ratio of KD value for NRAS to KD value for KRAS): GDP-bound NRAS wild-type vs GDP-bound KRAS wild-type"}}, "note": "Where a SMILES comes first, the peptide text is derived from it. Bridges are numbered along the chain shown (N, C = ends). [ ]: non-standard residue; d: D form. The star is where a group is joined. hPhe(3,5-F2-4-CF3) = N[C@@H](CCc1cc(F)c(C(F)(F)F)c(F)c1)C(=O)O; NPrPhe(4-CF3) = CCCN[C@@H](Cc1ccc(C(F)(F)F)cc1)C(=O)O; NMeGly(cPent) = CN[C@H](C(=O)O)C1CCCC1; NMeD = CN[C@@H](CC(=O)O)C(=O)O; NMeL = CN[C@@H](CC(C)C)C(=O)O; Iva = CC[C@](C)(N)C(=O)O; Morpholide = C1CN(*)CCO1; Sar = CNCC(=O)O", "data": [{"compound": "CCO[C@@H]1C[C@H]2C(=O)NC3(CCC3)C(=O)N(C)[C@@H](C3CCCC3)C(=O)N(C)[C@H](C(=O)N(C)C)CC(=O)N(C)[C@@H](CC)C(=O)N[C@@H]([C@@H](C)CC)C(=O)N(C)CC(=O)N(C)[C@H]3CCCCCN(C3=O)[C@@H](Cc3ccc(F)c(OC)c3)C(=O)N(C)CC(=O)N[C@@H](CCc3cc(F)c(C(F)(F)F)c(F)c3)C(=O)N2C1", "note": "[PP0915]", "values": [{"measurement": "HRAS/KRAS (ratio of KD value with respect to HRAS to KD value with respect to KRAS)", "setting": "[1]; SPR", "value": "B (a compound having 3 or more and less than 10 is denoted as B)"}, {"measurement": "NRAS/KRAS (ratio of KD value with respect to NRAS to KD value with respect to KRAS)", "setting": "[2]; SPR", "value": "B (a compound having 3 or more and less than 10 is denoted as B)"}]}, {"compound": "CCC[C@H]1C(=O)N[C@@H]([C@@H](C)CC)C(=O)N(C)CC(=O)N(C)[C@H]2C/C=C\\CCN(C2=O)[C@@H](Cc2ccc(C(F)(F)F)cc2)C(=O)N(C)CC(=O)N[C@@H](CCc2cc(F)c(C(F)(F)F)c(F)c2)C(=O)N2C[C@@H](C)C[C@H]2C(=O)NC2(CC(C)(C)C2)C(=O)N(C)[C@@H](C2CCCC2)C(=O)N(C)[C@H](C(=O)N(C)C)CC(=O)N1C", "note": "[PP1683]", "values": [{"measurement": "HRAS/KRAS (ratio of KD value for HRAS to KD value for KRAS)", "setting": "[1]; SPR", "value": "A (a compound having 10 or more and less than 20 is denoted as A)"}, {"measurement": "NRAS/KRAS (ratio of KD value for NRAS to KD value for KRAS)", "setting": "[2]; SPR", "value": "A (a compound having 10 or more and less than 20 is denoted as A)"}]}, {"compound": "CCC[C@H]1C(=O)N[C@@H]([C@@H](C)CC)C(=O)N(C)CC(=O)N(C)[C@H]2C/C=C\\CCN(C2=O)[C@@H](Cc2ccc(C(F)(F)F)cc2)C(=O)N(C)CC(=O)N[C@@H](CCc2ccc3ccn(C)c3c2)C(=O)N2C[C@H](OCC)C[C@H]2C(=O)NC2(CC(C)(C)C2)C(=O)N(C)[C@@H](C(CC)CC)C(=O)N(C)[C@H](C(=O)N(C)C)CC(=O)N1C", "note": "[PP2912]", "values": [{"measurement": "HRAS/KRAS (ratio of KD value with respect to GDP-bound HRAS wild-type protein to KD value with respect to KRAS)", "setting": "[1]; class symbols", "value": "A (a compound having 10 or more and less than 20 is denoted as A)"}, {"measurement": "NRAS/KRAS (ratio of KD value with respect to GDP-bound NRAS wild-type protein to KD value with respect to KRAS)", "setting": "[2]; class symbols", "value": "AA (a compound having 20 or more is denoted as AA)"}]}, {"compound": "CCO[C@@H]1C[C@H]2C(=O)NC3(CC(C)(C)C3)C(=O)N(C)[C@@H](C3CCCC3)C(=O)N(C)[C@H](C(=O)N3CCCCC3)CC(=O)N(C)[C@H]3CCC/C=C/c4ccc(cc4)C[C@@H](C(=O)N(C)CC(=O)N[C@@H](CCc4ccc(Cl)c(Cl)c4)C(=O)N2C1)N1CC/C=C\\C[C@@H](C1=O)N(C)C(=O)CN(C)C(=O)[C@H]([C@@H](C)CC)NC3=O", "note": "[PP2578]", "values": [{"measurement": "HRAS/KRAS (ratio of KD value with respect to GDP-bound HRAS wild-type protein to KD value with respect to KRAS)", "setting": "[1]; class symbols", "value": "A (a compound having 10 or more and less than 20 is denoted as A)"}, {"measurement": "NRAS/KRAS (ratio of KD value with respect to GDP-bound NRAS wild-type protein to KD value with respect to KRAS)", "setting": "[2]; class symbols", "value": "AA (a compound having 20 or more is denoted as AA)"}]}, {"compound": "CCCN1C(=O)CN(C)C(=O)CN(C)C(=O)[C@H]([C@@H](C)CC)NC(=O)[C@H](CC(C)C)N(C)C(=O)C[C@@H](C(=O)N2CCOCC2)N(C)C(=O)[C@H](C2CCCC2)N(C)C(=O)[C@](C)(CC)NC(=O)[C@@H]2CCCN2C(=O)[C@H](CCc2cc(F)c(C(F)(F)F)c(F)c2)NC(=O)CN(C)C(=O)[C@@H]1Cc1ccc(C(F)(F)F)cc1", "note": "[PP0754] ([NMeL]I[Sar][Sar][NPrPhe(4-CF3)][Sar][hPhe(3,5-F2-4-CF3)]P[Iva][NMeGly(cPent)][NMeD]-Morpholide; lactam N-11)", "values": [{"measurement": "HRAS/KRAS (ratio of KD value with respect to GDP-bound HRAS wild-type protein to KD value with respect to KRAS)", "setting": "[1]; SPR", "value": "C (A compound having a KD ratio of 0.1 or more and less than 3 is denoted as C)"}, {"measurement": "NRAS/KRAS (ratio of KD value with respect to GDP-bound NRAS wild-type protein to KD value with respect to KRAS)", "setting": "[2]; SPR", "value": "B (a compound having 3 or more and less than 10 is denoted as B)"}]}, {"compound": "CCCC[C@H]1C(=O)N[C@@H]([C@@H](C)CC)C(=O)N(C)CC(=O)N(C)[C@H]2C/C=C\\CCN(C2=O)[C@@H](Cc2ccc(C)cc2)C(=O)N(C)CC(=O)N[C@@H](CCc2cc(F)c(C(F)(F)F)c(F)c2)C(=O)N2C[C@H](OCC)C[C@H]2C(=O)NC2(CC(C)(C)C2)C(=O)N(C)[C@@H](C2CCCC2)C(=O)N(C)[C@H](C(=O)N(C)CC)CC(=O)N1C", "note": "[PP2808]", "values": [{"measurement": "HRAS/KRAS (ratio of KD value with respect to GDP-bound HRAS wild-type protein to KD value with respect to KRAS)", "setting": "[1]; class symbols", "value": "B (a compound having 3 or more and less than 10 is denoted as B)"}, {"measurement": "NRAS/KRAS (ratio of KD value with respect to GDP-bound NRAS wild-type protein to KD value with respect to KRAS)", "setting": "[2]; class symbols", "value": "B (a compound having 3 or more and less than 10 is denoted as B)"}]}, {"compound": "CC[C@H](C)[C@@H]1NC(=O)[C@H](CC(C)C)N(C)C(=O)C[C@@H](C(=O)N2CCOCC2)N(C)C(=O)[C@H](C2CCCC2)N(C)C(=O)C2(CCC2)NC(=O)[C@@H]2[C@@H](O)CCN2C(=O)[C@H](CCc2cc(F)c(C(F)(F)F)c(F)c2)NC(=O)CN(C)C(=O)[C@H](Cc2ccc(C(F)(F)F)cc2)N2CCCC[C@@H](C2=O)N(C)C(=O)CN(C)C1=O", "note": "[PP0869]", "values": [{"measurement": "HRAS/KRAS (ratio of KD value with respect to HRAS to KD value with respect to KRAS)", "setting": "[1]; SPR", "value": "B (a compound having 3 or more and less than 10 is denoted as B)"}, {"measurement": "NRAS/KRAS (ratio of KD value with respect to NRAS to KD value with respect to KRAS)", "setting": "[2]; SPR", "value": "B (a compound having 3 or more and less than 10 is denoted as B)"}]}, {"compound": "CCCOC[C@H]1C(=O)N[C@@H]([C@@H](C)CC)C(=O)N(C)CC(=O)N(C)[C@H]2C/C=C\\CCN(C2=O)[C@@H](Cc2ccc(C(F)(F)F)cc2)C(=O)N(C)CC(=O)N[C@@H](CCc2ccc(C(F)(F)F)c(OC)c2)C(=O)N2C[C@@H](C)C[C@H]2C(=O)NC2(CCC2)C(=O)N(C)[C@@H](C2CCCC2)C(=O)N(C)[C@H](C(=O)N(C)CCC)CC(=O)N1C", "note": "[PP2028]", "values": [{"measurement": "HRAS/KRAS (ratio of KD value for HRAS to KD value for KRAS)", "setting": "[1]; SPR", "value": "B (a compound having 3 or more and less than 10 is denoted as B)"}, {"measurement": "NRAS/KRAS (ratio of KD value for NRAS to KD value for KRAS)", "setting": "[2]; SPR", "value": "A (a compound having 10 or more and less than 20 is denoted as A)"}]}]}
